Assay results as given in US20200155555A1, “VITAMIN RECEPTOR DRUG DELIVERY CONJUGATES FOR TREATING INFLAMMATION” (Endocyte, Inc., priority 2007, published 2020).

Columns and labels:
[1] = system: rats with adjuvant-induced arthritis (AIA); assay: Adjuvant-induced arthritis (AIA) model
Description: Female Lewis rats were fed a folate-deficient diet (Harlan Teklad, Indianapolis, Ind.) for 9-10 days prior to arthritis induction. The adjuvant-induced arthritis (AIA) was induced by intradermal inoculation (at the base of tail) of 0.5 mg of heat-killed Mycobacteria butyricum (BD Diagnostic Systems, Sparks, Md.) in 100 μL light mineral oil (Sigma). Ten days after arthritis induction, paw edema in rats was assessed using a modified arthritis scoring system: 0=no arthritis; 1=swelling in one type of joint; 2=swelling in two types of joint; 3=swelling in three types of joint; 4=swelling of the entire paw. A total score for each rat is calculated by summarizing the scores for each of the four paws, giving a maximum score of 16 for each rat. On Day 10 post arthritis induction, rats with a total arthritis score of ≥2 were removed from the study and the remaining rats were distributed evenly across the control and treatment groups (n=5 for all groups except that n=2-3 for healthy controls). All treatments started on Day 10 unless mentioned otherwise. […]
Rats with adjuvant arthritis were treated subcutaneously with EC0932 (250 nmol/kg) in the absence or presence of 500-fold excess of EC0923 (125 μmol/kg) on days 10, 13, 17, and 20 post arthritis induction. The animals in the healthy and arthritis control groups were left untreated. The arthritis scores and animal body weights were recorded three times a week (see FIG. 19A, B). At the completion of study (day 24), the rats were euthanized by CO2 asphyxiation and processed for paw and spleen weights (see FIG. 20A, B).
The rat adjuvant induced arthritis (AIA) model resembles the characteristics of RA in humans and has been widely used to study the impact of novel anti-inflammatory agents.

[2] = system: Proliferating Cell Nuclear Antigen (PCNA) in RAW264.7 cells; assay: Western blot for proliferating cell nuclear antigen; format: cell-based, murine; conditions: 1-1000 nM; EC0565 2 h treatment and 48 h chase, everolimus 48 h
[3] = Plasma pharmacokinetics after a single i.v. or s.c. dose of EC0565; conditions: rats
Description: The bioavailability of EC0565 after subcutaneous injection was measured. Female Lewis rats with rounded tip jugular vein catheters (Harlan) were fed regular rodent diet. The treated animals were given a single intravenous or subcutaneous dose of EC0565 at 2 μmol/kg. […] For subcutaneous administration (FIG. 52B), whole blood samples (300 μl) were collected from the animals at 1 min, 10 min, 30 min, 1 h, 2 h, 3 h, 4 h, 8 h, and 12 h post injection. The blood samples were placed into anti-coagulant tubes containing 1.7 mg/mL of K3-EDTA and 0.35 mg/mL of N-maleoyl-beta-alanine (0.35 mg/mL). Plasma samples were obtained by centrifugation for 3 min at ˜2,000 g and stored at −80° C. The amount of EC0565 and its released base drug (everolimus) were determined by HPLC using the EC0565 injection solution as the standard.

DHFR = target: T1, DHFR (Mus musculus, UniProt P00375); assay: DHFR activity in lysate of treated RAW264.7 cells; format: cell-based, murine; conditions: excess folic acid alone, 10 μM
T1 construct: endogenous in cells; host or cells: RAW264.7 cells
T1 sequence (P00375 1-187): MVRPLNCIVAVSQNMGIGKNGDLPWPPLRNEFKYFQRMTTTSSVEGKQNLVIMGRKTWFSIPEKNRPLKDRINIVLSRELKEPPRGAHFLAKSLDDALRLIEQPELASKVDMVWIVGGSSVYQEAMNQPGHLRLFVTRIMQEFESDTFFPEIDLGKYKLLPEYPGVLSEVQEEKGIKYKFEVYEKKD
Description: RAW264.7 cells were treated with vehicle (medium), EC0746 (100 nM) without or with 100-fold excess free folate, aminopterin (AMT, 100 nM), methotrexate (MTX, 100 nM), or excess free folate alone (10 μM). After 1 h incubation, the drug-containing media were replaced with fresh medium and the cells were allowed to incubate further for 24 h. At the end of incubation, the cells were lysed and the DHFR activity in cell lysates was measured using a commercial DHFR assay kit (Sigma-Aldrich, Saint Louis, Mo.).

[4] = oral everolimus 500 nmol/kg tiw

For `CO[C@H]1C[C@@H]2CC[C@@H](C)[C@@](O)(O2)C(=O)C(=O)N2CCCC[C@H]2C(=O)O[C@H]([C@H](C)C[C@@H]2CC[C@@H](OCCO)[C@H](OC)C2)CC(=O)[C@H](C)/C=C(\C)[C@@H](O)[C@@H](OC)C(=O)[C@H](C)C[C@H](C)/C=C/C=C/C=C/1C` [everolimus], the “spleen weight compared to arthritic controls” value ([1]; 500 nmol/kg 3 times a week, EC0565 sc, everolimus oral) was “significantly decreased spleen weight compared to arthritic controls”, the “decrease in dorsal to ventral paw thickness” value [1, 4] was 44% and the “decrease in summed histological score” value [1, 4] was 52%. For the same compound, the “reductions in all scored histology parameters vs untreated controls” value [1, 4] was 44-61% and the “effect on PCNA in synchronized RAW264.7 cells” value [2] was “inhibited PCNA activities”.
With `CO[C@H]1C[C@@H]2CC[C@@H](C)[C@@](O)(O2)C(=O)C(=O)N2CCCC[C@H]2C(=O)O[C@H]([C@H](C)C[C@@H]2CC[C@@H](OCCOC(=O)OCCSSC[C@H](NC(=O)[C@H](CCC(=O)NC[C@H](O)[C@@H](O)[C@H](O)[C@H](O)CO)NC(=O)[C@H](CCC(=O)O)NC(=O)[C@H](CCC(=O)NC[C@H](O)[C@@H](O)[C@H](O)[C@H](O)CO)NC(=O)[C@H](CCC(=O)O)NC(=O)[C@H](CCC(=O)NC[C@H](O)[C@@H](O)[C@H](O)[C@H](O)CO)NC(=O)CC[C@H](NC(=O)c3ccc(NCc4cnc5nc(N)[nH]c(=O)c5n4)cc3)C(=O)O)C(=O)O)[C@H](OC)C2)CC(=O)[C@H](C)/C=C(\C)[C@@H](O)[C@@H](OC)C(=O)[C@H](C)C[C@H](C)/C=C/C=C/C=C/1C` [EC0565, Everolimus-EC0488 Conjugate] the “free drug (everolimus) exposure/release in plasma, based on AUC” value ([3]; single intravenous dose of EC0565, 2 μmol/kg) was “approximately 18%” and the “free drug (everolimus) exposure/release in plasma, based on AUC” value ([3]; single subcutaneous dose of EC0565, 2 μmol/kg) was about 17%.
For `Nc1nc2ncc(CNc3ccc(C(=O)N[C@@H](CCC(=O)O)C(=O)O)cc3)nc2c(=O)[nH]1` [folic acid], the “effect on DHFR activity in RAW264.7 cells” value (DHFR) was “did not have any impact”.
